We go through 38 compounds from ChEMBL document CHEMBL1131971, “Identification and initial structure-activity relationships of a novel non-peptide quinolone GnRH receptor antagonist” (Bioorg Med Chem Lett, 1999).

pIC50: −log10 of the molar value.

For the first test, the target named is T1, Gonadotropin-releasing hormone receptor (Rattus norvegicus, UniProt P30969).
T1 sequence (P30969 whole entry): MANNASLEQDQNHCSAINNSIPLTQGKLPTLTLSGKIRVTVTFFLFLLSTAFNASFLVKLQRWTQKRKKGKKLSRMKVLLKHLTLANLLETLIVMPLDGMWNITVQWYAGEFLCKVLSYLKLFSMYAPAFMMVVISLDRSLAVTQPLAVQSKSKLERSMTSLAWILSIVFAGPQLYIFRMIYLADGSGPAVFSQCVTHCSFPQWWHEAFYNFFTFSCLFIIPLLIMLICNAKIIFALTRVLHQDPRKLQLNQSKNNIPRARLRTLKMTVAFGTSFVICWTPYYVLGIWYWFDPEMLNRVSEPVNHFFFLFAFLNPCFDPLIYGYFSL
Nature of the test: Inhibition of [125I]buserelin to GnRH receptor in rat pituitary membranes. The format is cell membranes, Membrane.
Settings: not given
Turning to `Cc1cc(C)cc(-c2c(O)nc3cc(Cl)ccc3c2OCC2CCCCN2C)c1` (stereo not drawn), the pIC50 is 5.40. In turn, `Cc1cc(C)cc(-c2c(OCCC3CCCCN3C)c3ccc(Cl)cc3[nH]c2=O)c1` (stereo not drawn) had a pIC50 of 6.70. The compound `CN1CCCC(COc2c(-c3ccccc3)c(O)nc3cc(Cl)ccc23)C1` (stereo not drawn) showed a pIC50 of 5.40. On the same count and under the same terms, next, `Cc1cc(C)cc(-c2c(OC3CCN(C)CC3)c3ccc(Cl)cc3[nH]c2=O)c1`: 5.89. Still for that read-out and setting: with `Cc1cc(C)cc(-c2c(O)nc3cc(Cl)ccc3c2OCC2CN(C)CCO2)c1` (stereo not drawn) the figure was 5.85. Compound `Cc1cc(C)cc(-c2c(OCCC3CCCCN3C)c3ccc(C(F)(F)F)cc3[nH]c2=O)c1` (stereo not drawn) had a pIC50 of 7.00.

For `Cc1cc(C)cc(-c2c(O)nc3cc(Cl)ccc3c2OCC(C)CN(C)C)c1` (stereo not drawn), the pIC50 is 5.20. On the same count and under the same terms, next, `Cc1cc(C)cc(-c2c(OCC3CCCN(C)C3)c3ccc(C)cc3[nH]c2=O)c1` (stereo not drawn): 5.41; `Cc1cc(C)cc(-c2c(O)nc3cc([N+](=O)[O-])ccc3c2OCC2CCCN(C)C2)c1` (stereo not drawn): 5.85.

With `Cc1cc(C)cc(-c2c(O)nc3cc(Cl)ccc3c2OCC2CCCNC2)c1` (stereo not drawn), the negative logarithm of the IC50 (pIC50) is 6.30. Still for that read-out and setting: with `Cc1cc(C)cc(-c2c(O)nc3cc(Cl)ccc3c2OCC2CCN(C)C2)c1` (stereo not drawn) the figure was 6.30.

Compound `CN(C)CCCOc1c(-c2ccccc2)c(O)nc2cc(Cl)ccc12` showed a pIC50 of 5.05. On to `Cc1cc(C)cc(-c2c(OCCC3CCCCN3C)c3ccc(Br)cc3[nH]c2=O)c1` (stereo not drawn), for which the negative-log IC50 (pIC50) was 6.82. `Cc1cc(C)cc(-c2c(OCCC3CCCCN3C)c3cc([N+](=O)[O-])c(Cl)cc3[nH]c2=O)c1` (stereo not drawn): the pIC50 was 7.49. Same read-out and setting: next, `Cc1cc(C)cc(-c2c(O)nc3cc(Cl)ccc3c2OCCC2CCCN2C)c1` (stereo not drawn): 6.70; `Oc1nc2cc(Cl)ccc2c(OCc2ccccn2)c1-c1ccccc1`: 5.00. The same measure, in the same setting: with `CN1CCCCC(Oc2c(-c3ccccc3)c(O)nc3cc(Cl)ccc23)C1` (stereo not drawn) the figure was 5.15; with `Cc1cc(C)cc(-c2c(O)nc3cc(Cl)ccc3c2OC2CCCN(C)CC2)c1` (stereo not drawn), 6.52.

With `CN1CCCCC1COc1c(-c2ccccc2)c(=O)[nH]c2cc(Cl)ccc12` (stereo not drawn), the pIC50 is 5.05. `Cc1cc(C)cc(-c2c(O)nc3cc(Cl)ccc3c2OCC2CCCCN(C)C2)c1` (stereo not drawn): the pIC50 is 5.89.

Turning to `Cc1cc(C)cc(-c2c(OCC3CCCN(C)C3)c3ccc(Cl)cc3[nH]c2=O)c1` (stereo not drawn), the pIC50 is 6.52.

For the compound `Cc1cc(C)cc(-c2c(OCCCN3CCCCC3)c3ccc(Cl)cc3[nH]c2=O)c1`, the pIC50 was 5.12.

Another test has as its target T2, Gonadotropin-releasing hormone receptor (Rattus norvegicus) (UniProt P30969).
T2 sequence (whole entry): T1 sequence (P30969 whole entry)
Put plainly: Inhibitory activity at GnRH receptor in rat pituitary membranes. The format is cell membranes. The arrangement: concentration or dose not given beside the values. Conditions: concentration not given here.
In the case of `COc1ccc2nc(O)c(-c3cc(C)cc(C)c3)c(OCC3CCCN(C)C3)c2c1` (stereo not drawn), the inhibition is under 50%. As to `COC(=O)c1ccc2c(OCC3CCCN(C)C3)c(-c3cc(C)cc(C)c3)c(O)nc2c1` (stereo not drawn), the inhibition is under 50%. Still for that read-out and setting: next, `Cc1cc(C)cc(-c2c(O)nc3ccc(C)cc3c2OCC2CCCN(C)C2)c1` (stereo not drawn): under 50%.

For the compound `Oc1nc2cc(Cl)ccc2c(OCc2ccccc2)c1-c1ccccc1`, the inhibition is under 50%. On the same count and under the same terms, next, `Oc1nc2cc(Cl)ccc2c(OCc2cccnc2)c1-c1ccccc1`: under 50%; `Cc1cc(C)cc(-c2c(O)nc3ccc(Cl)cc3c2OCC2CCCN(C)C2)c1` (stereo not drawn): under 50%. As to `Cc1cc(C)cc(-c2c(O)nc3c(Cl)cccc3c2OCC2CCCN(C)C2)c1` (stereo not drawn), the inhibition was under 50%. For `Oc1nc2cc(Cl)ccc2c(OCc2ccc3ccccc3n2)c1-c1ccccc1`, the inhibition was under 50%. On the same count and under the same terms, with `Cc1cc(C)cc(-c2c(O)nc3cc(F)ccc3c2OCC2CCCN(C)C2)c1` (stereo not drawn) the figure was under 50%; with `O=C1c2ccccc2C(=O)N1CCCOc1c(-c2ccccc2)c(O)nc2cc(Cl)ccc12`, under 50%; with `NCCCOc1c(-c2ccccc2)c(O)nc2cc(Cl)ccc12`, under 50%. On the same count and under the same terms, with `CN(C)CCOc1c(-c2ccccc2)c(O)nc2cc(Cl)ccc12` the figure was under 50%; with `Cc1cc(C)cc(-c2c(O)nc3ccc([N+](=O)[O-])cc3c2OCC2CCCN(C)C2)c1` (stereo not drawn), under 50%; with `Oc1nc2cc(Cl)ccc2c(OCc2ccncc2)c1-c1ccccc1`, under 50%. For the compound `Cc1cc(C)cc(-c2c(O)nc3cccc(Cl)c3c2OCC2CCCN(C)C2)c1` (stereo not drawn), the inhibition was under 50%. The compound `Cc1cc(C)cc(-c2c(O)nc3cc(Cl)ccc3c2OCC2CCNCC2)c1` had an inhibition of under 50%.
